Patent EP0562575B1, “N-substituted-3-(substituted hydrazino)-benzenesulfonamide derivative, preparation process thereof, and herbicidal compositions” (KUREHA KAGAKU KOGYO KABUSHIKI KAISHA, priority 1992, dated 1993)
Read-outs that look alike come from different tables or passages of the source.

Tests used:
Format in all cases: in vivo
Galium aparine = experiment: Test for selective herbicidal effect in post-emergence by treatment of stalks and leaves; conditions: 1 - to 2 - leaf stage, 21 days
Protocol: (§1) Wheat and the weed were reared from seeds in the planters in a glasshouse. When the young plants had reached the 1 - to 2 - leaf stage, the wettable powders prepared in the same manner as Preparation Example 1 described above were diluted with water to a prescribed concentration and sprayed uniformly to the stalks arid leaves of the plants and on the soil surface in the planters by a spray gun so that the acrive ingredient would be applied at a rate of 5 g/ha and 50 g/ha. Then the planters were kept in the glasshouse. Twenty-one days after said treatment, the herbicidal effect of the compositions on the weeds and phytotoxicity of the crops were observed and evaluated according to the following ratings.

Solanum nigrum [1] = experiment: Germination test of seeds (Petri dish); conditions: S.n., seeds in Petri dish, 28 °C, 14 days
Protocol: (§2) Two sheets of filter paper were placed in a superposed relation in each of Petri dishes having a diameter of 9 cm. Water suspensions of each test compound (concentrations of the active ingredient: 0.25 ppm and 2.5 ppm) were separately poured in an amount of 6ml per dish into the Petri dishes. Seeds of Amaranthus retroflexus, (Redroot pigweed), Bidens pilosa (Common blackjack), Matricaria chamomilla (Wild chamomile), Solanum nigrum (Black nightshade), Echinochloa crus-galli(Barnyard grass), Cyperus iria (Rice flatsedge) and Setaria viridis (Green foxtail) were placed at a rate of 10 seeds per dish in the Petri dishes. They were thereafter allowed to germinate in a constant-temperature chamber at 28 °C. Fourteen days later after placement in the Petri dishes, the degrees of germination and growth inhibition were observed visually. The observation results were ranked in accordance with the below-described 6-stage system.

Bidens pilosa [2] = experiment: Germination test of seeds (Petri dish); conditions: B.p., seeds in Petri dish, 28 °C, 14 days
Protocol: as §2

Matricaria chamomilla [3] = experiment: Germination test of seeds (Petri dish); conditions: M.c., seeds in Petri dish, 28 °C, 14 days
Protocol: as §2

Echinochloa crus-galli = experiment: Germination test of seeds (Petri dish); conditions: E.c., seeds in Petri dish, 28 °C, 14 days
Protocol: as §2

Amaranthus retroflexus [4] = experiment: Germination test of seeds (Petri dish); conditions: A.r., seeds in Petri dish, 28 °C, 14 days
Protocol: as §2

Cyperus iria = experiment: Germination test of seeds (Petri dish); conditions: C.i., seeds in Petri dish, 28 °C, 14 days
Protocol: as §2

Setaria viridis [5] = experiment: Germination test of seeds (Petri dish); conditions: S.v., seeds in Petri dish, 28 °C, 14 days
Protocol: as §2

Avena fatua = experiment: Test on herbicidal activity by foliar application; conditions: A.f.; 50 g/ha foliar spray, 2 - 4 leaf stage, 14 days
Excerpt: (§3) Herbicidal solutions of each test compound, which had been prepared by dissolving at predetermined concentrations such as wettable powder of the test compound as that described in the above formulation example, and sprayed at dosages of 5 g/ha and 50 g/ha over foliar parts of Amaranthus retroflexus, (Redroot pigweed), Bidens pilosa (Common blackjack), Sinapis arvensis (Wild mustard), Stellaria media (Common chickweed), Cassia obtusifolia (Sicklepod), Solanum nigrum (Black nightshade), Abutilon theophrasti (Velvetleaf), Convolvulus arvensis (Field bindweed), Matricaria chamomilla (Wild chamomile), Setaria viridis (Green foxtail), Echinochloa frumentaceum (Barnyard grass), Avena fatua (Wild oat), and Digitaria adscendens (Henry crabgrass) which had been allowed to grow individually to 2 - 4 leaf stage in pots. Fourteen days later after spraying of the test compound, its herbicidal acrivity was evaluated in accordance with the below-described system.
(§4) 0: no effects 1: less than 30% of total kill 2: 31 - 50% of total kill 3: 51 - 70% of total kill 4: 71 - 90% of total kill 5: 91 - 100% of total kill.

Solanum nigrum [6] = experiment: Test on herbicidal activity by foliar application; conditions: S.n; 50 g/ha foliar spray, 2 - 4 leaf stage, 14 days
Excerpt: as §3, §4

Bidens pilosa [7] = experiment: Test on herbicidal activity by foliar application; conditions: B.p; 50 g/ha foliar spray, 2 - 4 leaf stage, 14 days
Excerpt: as §3, §4

Matricaria chamomilla [8] = experiment: Test on herbicidal activity by foliar application; conditions: M.c; 50 g/ha foliar spray, 2 - 4 leaf stage, 14 days
Excerpt: as §3, §4

Convolvulus arvensis = experiment: Test on herbicidal activity by foliar application; conditions: C.a.; 50 g/ha foliar spray, 2 - 4 leaf stage, 14 days
Excerpt: as §3, §4

Amaranthus retroflexus [9] = experiment: Test on herbicidal activity by foliar application; conditions: A.r; 50 g/ha foliar spray, 2 - 4 leaf stage, 14 days
Excerpt: as §3, §4

Digitaria adscendens = experiment: Test on herbicidal activity by foliar application; conditions: D.a.; 50 g/ha foliar spray, 2 - 4 leaf stage, 14 days
Excerpt: as §3, §4

Echinochloa frumentaceum = experiment: Test on herbicidal activity by foliar application; conditions: E.f.; 50 g/ha foliar spray, 2 - 4 leaf stage, 14 days
Excerpt: as §3, §4

Sinapis arvensis = experiment: Test on herbicidal activity by foliar application; conditions: S.a.; 50 g/ha foliar spray, 2 - 4 leaf stage, 14 days
Excerpt: as §3, §4

Cassia obtusifolia = experiment: Test on herbicidal activity by foliar application; conditions: C.o.; 50 g/ha foliar spray, 2 - 4 leaf stage, 14 days
Excerpt: as §3, §4

Stellaria media = experiment: Test on herbicidal activity by foliar application; conditions: S.m.; 50 g/ha foliar spray, 2 - 4 leaf stage, 14 days
Excerpt: as §3, §4

Setaria viridis [10] = experiment: Test on herbicidal activity by foliar application; conditions: S.v.; 50 g/ha foliar spray, 2 - 4 leaf stage, 14 days
Excerpt: as §3, §4

Abutilon theophrasti = experiment: Test on herbicidal activity by foliar application; conditions: A.t; 50 g/ha foliar spray, 2 - 4 leaf stage, 14 days
Excerpt: as §3, §4

Wheat = test system: Wheat; set-up: key: 0: no inhibition; less than 31%; 2: 31 - 50%; 3: 51 - 70%; 4: 71 - 90%; 5: 91 - 100%; conditions: 1 - to 2 - leaf stage, 21 days
Protocol: as §1

CC=NNc1ccc(C(=O)OC)c(S(=O)(=O)NC(=O)Nc2nc(OC)nc(OC)n2)c1 [Compound I-1]
3 (51 - 70% of total kill): Herbicidal activity (Echinochloa frumentaceum) | Herbicidal activity (Setaria viridis [10])
3 (51 - 70%): Growth inhibition rate (Solanum nigrum [1]; 2.5 ppm) | Growth inhibition rate (Bidens pilosa [2]; 0.25 ppm) | Growth inhibition rate (Echinochloa crus-galli; 2.5 ppm) | Growth inhibition rate (Amaranthus retroflexus [4]; 0.25 ppm) | Growth inhibition rate (Setaria viridis [5]; 0.25 ppm)
0: Growth inhibition rate (phytotoxicity of the crops) (Wheat; 5 g/ha post-emergence spray) | Growth inhibition rate (phytotoxicity of the crops) (Wheat; 50 g/ha post-emergence spray)
5 (91 - 100%): Growth inhibition rate (herbicidal effect) (Galium aparine; 5 g/ha post-emergence spray) | Growth inhibition rate (herbicidal effect) (Galium aparine; 50 g/ha post-emergence spray) | Growth inhibition rate (Amaranthus retroflexus [4]; 2.5 ppm)
2 (31 - 50%): Growth inhibition rate (Solanum nigrum [1]; 0.25 ppm) | Growth inhibition rate (Matricaria chamomilla [3]; 0.25 ppm) | Growth inhibition rate (Echinochloa crus-galli; 0.25 ppm) | Growth inhibition rate (Cyperus iria; 0.25 ppm)
5 (91 - 100% of total kill): Herbicidal activity (Solanum nigrum [6]) | Herbicidal activity (Bidens pilosa [7]) | Herbicidal activity (Matricaria chamomilla [8]) | Herbicidal activity (Convolvulus arvensis) | Herbicidal activity (Amaranthus retroflexus [9]) | Herbicidal activity (Sinapis arvensis) | Herbicidal activity (Cassia obtusifolia) | Herbicidal activity (Stellaria media) | Herbicidal activity (Abutilon theophrasti)
2 (31 - 50% of total kill): Herbicidal activity (Avena fatua)
4 (71 - 90% of total kill): Herbicidal activity (Digitaria adscendens)
4 (71 - 90%): Growth inhibition rate (Bidens pilosa [2]; 2.5 ppm) | Growth inhibition rate (Matricaria chamomilla [3]; 2.5 ppm) | Growth inhibition rate (Cyperus iria; 2.5 ppm) | Growth inhibition rate (Setaria viridis [5]; 2.5 ppm)
